{"source": "patent EP4752139A1", "about": "“BRANCHED MULTI-HYDROXYL-PROTECTING OLIGOMER, LINKED BODY BONDED THEREWITH, AND BRANCHED MULTI-HYDROXYL OLIGOMER OBTAINED BY DEPROTECTING SAID LINKED BODY” (Tomoike Bio Ltd., priority 2023, dated 2025)"}
{"experiment": "Evaluation of water solubility of deprotected pterostilbene linked bodies", "format": "physicochemical", "settings": "ion-exchanged water; solubility threshold could not be measured because the compound was extremely water-soluble", "experimental": "(§1) The deprotected pterostilbene linked body obtained in Examples were evaluated for water solubility using the following method. In FIGs 1 and 2, the numbers in the ellipses for each compound represent a level of water solubility as a molar ratio, with the water solubility of F1 (pterostilbene) (21 mg (0.0819 mmol) dissolved in 1 liter) being set at 1.0. The water solubility of F1 (pterostilbene) was determined using the value described in Sarah J. Bethune et al., Cryst. Growth Des. 2011, 11, 2817-2823. The water solubility of F1 glycoside (pterostilbene monoglycoside) was determined using the value described in Jose L. Gonzalez-Alfonso et al., Molecules 2018, 23, 1271.\n(§2) Into a round-bottom flask was weighed 1.0 g of the compound and 100 mL of ion-exchanged water in sequence and the mixture was heated with a heat gun for about 1 minute, taking care not to boil the mixture, and then cooled to room temperature and allowed to stand. After 24 hours, the residue was removed by filtration, and the filtrate was concentrated under reduced pressure. A water solubility of each compound was calculated from the weight of the compound recovered from the filtrate.\n(§3) In a round-bottom flask, a solution was prepared the amounts of the compound and ion-exchanged water shown in Figure 1, and a water solubility of the compound was calculated. Because the compound was extremely water-soluble, a water solubility threshold could not be measured. However, compared to the hardly water-soluble F1, its water solubility was 2×10^4 times or more, that is, extremely higher."}
{"smiles": "COc1cc(/C=C/c2ccc(OCC(COC(CO)CO)(COC(CO)CO)COC(CO)CO)cc2)cc(OC)c1", "note": "[H129, (E)-2,2'-((2-(((1,3-dihydroxypropan-2-yl)oxy)methyl)-2-((4-(3,5-dimethoxystyryl)phenoxy)methyl)propane-1,3-diyl)bis(oxy))bis(propane-1,3-diol)]", "water solubility compared to the hardly water-soluble F1": "≥ 2×10^4 times"}
{"smiles": "COc1cc(/C=C/c2ccc(OCC(COCC(O)CO)(COCC(O)CO)COCC(O)CO)cc2)cc(OC)c1", "note": "(stereo not drawn) [H139, (E)-3,3'-((2-((2,3-dihydroxypropoxy)methyl)-2-((4-(3,5-dimethoxystyryl)phenoxy)methyl)propane-1,3-diyl)bis(oxy))bis(propane-1,2-diol)]", "water solubility compared to the hardly water-soluble F1": "≥ 2×10^4 times"}
{"smiles": "COc1cc(/C=C/c2ccc(OCC(CO)(CO)COCC(COCC(CO)(CO)CO)(COCC(CO)(CO)CO)COCC(CO)(CO)CO)cc2)cc(OC)c1", "note": "[J119, (E)-2,2'-(((2-((3-(4-(3,5-dimethoxystyryl)phenoxy)-2,2-bis(hydroxymethyl)propoxy)methyl)-2-((3-hydroxy-2,2-bis(hydroxymethyl)propoxy)methyl)propane-1,3-diyl)bis(oxy))bis(methylene))bis(2-(hydroxymethyl)propane-1,3-diol)]", "water solubility compared to the hardly water-soluble F1": "≥ 2×10^4 times"}
{"smiles": "COc1cc(/C=C/c2ccc(OCC(CO)(CO)COCC(COC(CO)CO)(COC(CO)CO)COC(CO)CO)cc2)cc(OC)c1", "note": "[J129, (E)-2,2'-((2-(((1,3-dihydroxypropan-2-yl)oxy)methyl)-2-((3-(4-(3,5-dimethoxystyryl)phenoxy)-2,2-bis(hydroxymethyl)propoxy)methyl)propane-1,3-diyl)bis(oxy))bis(propane-1,3-diol)]", "water solubility compared to the hardly water-soluble F1": "≥ 2×10^4 times"}
{"smiles": "COc1cc(/C=C/c2ccc(OCC(CO)(CO)COCC(COCC(O)CO)(COCC(O)CO)COCC(O)CO)cc2)cc(OC)c1", "note": "(stereo not drawn) [J139, (E)-3,3'-((2-((2,3-dihydroxypropoxy)methyl)-2-((3-(4-(3,5-dimethoxystyryl)phenoxy)-2,2-bis(hydroxymethyl)propoxy)methyl)propane-1,3-diyl)bis(oxy))bis(propane-1,2-diol)]", "water solubility compared to the hardly water-soluble F1": "≥ 2×10^4 times"}
{"smiles": "COc1cc(/C=C/c2ccc(OCC(CO)(CO)COC(COCC(CO)(CO)CO)COCC(CO)(CO)CO)cc2)cc(OC)c1", "note": "[J219, (E)-2,2'-(((2-(3-(4-(3,5-dimethoxystyryl)phenoxy)-2,2-bis(hydroxymethyl)propoxy)propane-1,3-diyl)bis(oxy))bis(methylene))bis(2-(hydroxymethyl)propane-1,3-diol)]", "water solubility compared to the hardly water-soluble F1": "≥ 2×10^4 times"}
{"smiles": "COc1cc(/C=C/c2ccc(OCC(CO)(CO)COC(COC(CO)CO)COC(CO)CO)cc2)cc(OC)c1", "note": "[J229, (E)-2,2'-((2-(3-(4-(3,5-dimethoxystyryl)phenoxy)-2,2-bis(hydroxymethyl)propoxy)propane-1,3-diyl)bis(oxy))bis(propane-1,3-diol)]", "water solubility compared to the hardly water-soluble F1": "≥ 2×10^4 times"}
{"smiles": "COc1cc(/C=C/c2ccc(OCC(CO)(CO)COC(COCC(O)CO)COCC(O)CO)cc2)cc(OC)c1", "note": "(stereo not drawn) [J239, (E)-3,3'-((2-(3-(4-(3,5-dimethoxystyryl)phenoxy)-2,2-bis(hydroxymethyl)propoxy)propane-1,3-diyl)bis(oxy))bis(propane-1,2-diol)]", "water solubility compared to the hardly water-soluble F1": "≥ 2×10^4 times"}
{"experiment": "Evaluation of water solubility of deprotected pterostilbene linked bodies", "format": "physicochemical", "settings": "water solubility of F1 (pterostilbene) set at 1.0 (reference)", "experimental": "as §1, §2, §3"}
{"smiles": "COc1cc(/C=C/c2ccc(O)cc2)cc(OC)c1", "note": "[F1, (E)-4-(3,5-dimethoxystyryl)phenol, reference compound]", "level of water solubility as a molar ratio": 1.0}
